Where two headings read alike, the source gives them in different places.
Experiments:
[1] = tested on: cells from the thymus of normal BALB/c mice (lymphocyte proliferation); test: Comitogen-induced thymocyte proliferation procedure (LAF); format: cell-based; conditions: Mus musculus
Procedure: (§1) Immunosuppressive activity for representative compounds of this invention was evaluated in an in vitro standard pharmacological test procedure to measure lymphocyte proliferation (LAF) and in an in vivo standard pharmacological test procedure which evaluated the survival time of a pinch skin graft.
The comitogen-induced thymocyte proliferation procedure (LAF) was used as an in vitro measure of the immunosuppressive effects of representative compounds. Briefly, cells from the thymus of normal BALB/c mice are cultured for 72 hours with PHA and IL-1 and pulsed with tritiated thymidine during the last six hours. Cells are cultured with and without various concentrations of rapamycin, cyclosporin A, or test compound. Cells are harvested and incorporated radioactivity is determined. Inhibition of lymphoproliferation is assessed as percent change in counts per minute from non-drug treated controls. For each compound evaluated, rapamycin was also evaluated for the purpose of comparison. An IC50 was obtained for each test compound as well as for rapamycin. […] The results obtained for the representative compounds of this invention are presented as IC50s.

[2] = tested on: pinch skin graft from male BALB/c donors transplanted to male C3H(H-2K) recipients; test: Survival time of pinch skin graft; format: in vivo, mouse; conditions: 4 mg/kg; intraperitoneally or orally; untreated usually rejected within 6-7 days
Procedure: as §1
Representative compounds of this invention were also evaluated in an in vivo test procedure designed to determine the survival time of pinch skin graft from male BALB/c donors transplanted to male C3 H(H-2K) recipients. The method is adapted from Billingham R. E. and Medawar P. B., J. Exp. Biol. 28:385-402, (1951). Briefly, a pinch skin graft from the donor was grafted on the dorsum of the recipient as a allograft, and an isograft was used as control in the same region. The recipients were treated with either varying concentrations of test compounds intraperitoneally or orally. Rapamycin was used as a test control. Untreated recipients serve as rejection control. The graft was monitored daily and observations were recorded until the graft became dry and formed a blackened scab. This was considered as the rejection day. The mean graft survival time (number of days ±S.D.) of the drug treatment group was compared with the control group. […] Results are expressed as the mean survival time in days. Untreated (control) pinch skin grafts are usually rejected within 6-7 days. The results shown in Table 1 are based on a dose of 4 mg/kg of test compound. A survival time of 11.67±0.63 days was obtained for rapamycin at 4 mg/kg.

[3] = Relative oral potency: oral and i.p. ED50s in the skin graft test procedure; format: in vivo; conditions: mouse, ratio of oral and i.p. ED50s, p.o. 40, 10, 2.5 mg/kg, i.p. 4, 1, 0.25 mg/kg, 6 consecutive days, data obtained in cremophor, lower ratio = greater oral bioavailability
Procedure: The relative oral potency is determined by comparing the oral and i.p. ED50s obtained in the skin graft standard pharmacological test procedure. Briefly, the compound to be tested is evaluated at the doses of 40, 10, and 2.5 mg/kg for p.o. administration and 4, 1, and 0.25 mg/kg for i.p. administration, both administered for 6 consecutive days in the skin graft test procedure so that a dose response curve can be generated for both oral and i.p. administration. The data are subjected to a parallel line analysis and an oral and i.p. ED50 is calculated for the compound tested, and the ED50s are expressed as a ratio according to the following formula: [formula]
When comparing oral potency for different compounds that have been evaluated, the lower the ratio, the greater the oral bioavailability. The oral bioavailability serves as a measure of oral potency.

[4] = tested on: Candida albicans; conditions: particularly against Candida albicans, both in vitro and in vivo; cited from earlier work
[5] = tested on: experimental allergic encephalomyelitis; conditions: model for multiple sclerosis; cited from earlier work
[6] = tested on: adjuvant arthritis; conditions: model for rheumatoid arthritis; cited from earlier work
[7] = 72 hours with PHA and IL-1, tritiated thymidine during last six hours, read-out: LAF IC50

Compound	IC50 [1, 7] [nM]	Skin Graft mean survival time (days ± SD) [2] [days]	also measured
CO[C@H]1C[C@@H]2CC[C@@H](C)[C@@](O)(O2)C(=O)C(=O)N2CCCC[C@H]2C(=O)O[C@H]([C@H](C)C[C@@H]2CC[C@@H](OC(=O)C[C@H](NC(=O)OCc3ccccc3)C(=O)O)[C@H](OC)C2)CC(=O)[C@H](C)/C=C(\C)[C@@H](O)[C@@H](OC)C(=O)[C@H](C)C[C@H](C)/C=C/C=C/C=C/1C [Example 1, Rapamycin 42-ester with (S)-3-carboxy-3-[[[phenylmethoxy]carbonyl]amino]-propanoic acid]	10.7	10.00 ± 0.00	–
CO[C@H]1C[C@@H]2CC[C@@H](C)[C@@](O)(O2)C(=O)C(=O)N2CCCC[C@H]2C(=O)O[C@H]([C@H](C)C[C@@H]2CC[C@@H](OC(=O)C[C@H](N)C(=O)O)[C@H](OC)C2)CC(=O)[C@H](C)/C=C(\C)[C@@H](O)[C@@H](OC)C(=O)[C@H](C)C[C@H](C)/C=C/C=C/C=C/1C [Example 3, Rapamycin 42-ester with (S)-3-amino-3-carboxypropanoic acid]	2.5	10.17 ± 0.75	–
CCCOC(=O)N[C@@H](CCC(=O)O[C@@H]1CC[C@@H](C[C@@H](C)[C@@H]2CC(=O)[C@H](C)/C=C(\C)[C@@H](O)[C@@H](OC)C(=O)[C@H](C)C[C@H](C)/C=C/C=C/C=C(\C)[C@@H](OC)C[C@@H]3CC[C@@H](C)[C@@](O)(O3)C(=O)C(=O)N3CCCC[C@H]3C(=O)O2)C[C@H]1OC)C(=O)O [Example 4, Rapamycin 42-ester with (S)-4-carboxy-4-[[[propyloxy]carbonyl]amino]butanoic acid]	3.2	11.00 ± 1.00	–
CCCOC(=O)N[C@H](CCC(=O)O[C@@H]1CC[C@@H](C[C@@H](C)[C@@H]2CC(=O)[C@H](C)/C=C(\C)[C@@H](O)[C@@H](OC)C(=O)[C@H](C)C[C@H](C)/C=C/C=C/C=C(\C)[C@@H](OC)C[C@@H]3CC[C@@H](C)[C@@](O)(O3)C(=O)C(=O)N3CCCC[C@H]3C(=O)O2)C[C@H]1OC)C(=O)O [Example 5, Rapamycin 42-ester with (R)-4-carboxy-4[[[propyloxy]carbonyl]amino]-butanoic acid]	3.9	10.83 ± 0.75	–
CO[C@H]1C[C@@H]2CC[C@@H](C)[C@@](O)(O2)C(=O)C(=O)N2CCCC[C@H]2C(=O)O[C@H]([C@H](C)C[C@@H]2CC[C@@H](OC(=O)CC[C@H](N)C(=O)O)[C@H](OC)C2)CC(=O)[C@H](C)/C=C(\C)[C@@H](O)[C@@H](OC)C(=O)[C@H](C)C[C@H](C)/C=C/C=C/C=C/1C [Example 7, Rapamycin 42-ester with (S)-4-amino-4-carboxy-butanoic acid]	14	10.80 ± 0.40	–
CO[C@H]1C[C@@H]2CC[C@@H](C)[C@@](O)(O2)C(=O)C(=O)N2CCCC[C@H]2C(=O)O[C@H]([C@H](C)C[C@@H]2CC[C@@H](OC(=O)CC[C@@H](N)C(=O)O)[C@H](OC)C2)CC(=O)[C@H](C)/C=C(\C)[C@@H](O)[C@@H](OC)C(=O)[C@H](C)C[C@H](C)/C=C/C=C/C=C/1C [Example 9, Rapamycin 42-ester with (R)-4-amino-4-carboxybutanoic acid]	7.8	11.20 ± 1.00	–
CO[C@H]1C[C@@H]2CC[C@@H](C)[C@@](O)(O2)C(=O)C(=O)N2CCCC[C@H]2C(=O)O[C@H]([C@H](C)C[C@@H]2CC[C@@H](OC(=O)CC[C@H](NC(=O)OCc3ccccc3)C(=O)O)[C@H](OC)C2)CC(=O)[C@H](C)/C=C(\C)[C@@H](O)[C@@H](OC)C(=O)[C@H](C)C[C@H](C)/C=C/C=C/C=C/1C [Example 10]	27.1	10.17 ± 0.41	–
CO[C@H]1C[C@@H]2CC[C@@H](C)[C@@](O)(O2)C(=O)C(=O)N2CCCC[C@H]2C(=O)O[C@H]([C@H](C)C[C@@H]2CC[C@@H](OC(=O)CC[C@H](N)C(=O)OC(C)(C)C)[C@H](OC)C2)CC(=O)[C@H](C)/C=C(\C)[C@@H](O)[C@@H](OC)C(=O)[C@H](C)C[C@H](C)/C=C/C=C/C=C/1C [Example 11, Rapamycin 42-ester with-(S)-4-amino-5-(1,1-dimethylethoxy)-5-oxo-pentanoic acid]	1.1	11.50 ± 1.05	selectivity ratio [3]: 5.6
CO[C@H]1C[C@@H]2CC[C@@H](C)[C@@](O)(O2)C(=O)C(=O)N2CCCC[C@H]2C(=O)O[C@H]([C@H](C)C[C@@H]2CC[C@@H](OC(=O)CC[C@H](NC(=O)OC(C)(C)C)C(=O)OC(C)(C)C)[C@H](OC)C2)CC(=O)[C@H](C)/C=C(\C)[C@@H](O)[C@@H](OC)C(=O)[C@H](C)C[C@H](C)/C=C/C=C/C=C/1C [Rapamycin 42-ester with (S)-5-tert-butoxy-4-tert-butoxycarbonylamino-5-oxo-pentanoic acid, reference compound]	–	–	selectivity ratio [3]: 188
CO[C@H]1C[C@@H]2CC[C@@H](C)[C@@](O)(O2)C(=O)C(=O)N2CCCC[C@H]2C(=O)O[C@H]([C@H](C)C[C@@H]2CC[C@@H](O)[C@H](OC)C2)CC(=O)[C@H](C)/C=C(\C)[C@@H](O)[C@@H](OC)C(=O)[C@H](C)C[C@H](C)/C=C/C=C/C=C/1C [rapamycin]	–	11.67 ± 0.63	IC50 ([1]; read-out: IC50 of rapamycin as comparator (LAF)): 2.8 to 11.6 nM; antifungal activity [4]: antifungal activity; effect in the experimental allergic encephalomyelitis model [5]: effective; effect in the adjuvant arthritis model [6]: effective
